For one data set, the system named is P. aeruginosa strains. To be noted: clinical trials; cited from earlier work.
The test system of another data set is C4-HSL autoinducer. Conditions: 50 μg of erythromycin/ml; cited from earlier work.
In a further data set the test system is rhlAB operon. In words: rhlA'-lacZ reporter (pECP60) expression of the rhlAB operon, beta-Gal activity, with growth curves. In kind it is cell-based, P. aeruginosa. To be noted: 2 μg/ml, LB medium, 16 hours. Here is the method: P. aeruginosa strain PAO1, harbouring the fusion gene pECP60 of rhlA′ with the lacZ reporter (Pesci, E. C., Pearson, J. P., Seed, P. C., Iglewski, B. H., J. Bacteriol. 1997, 179, 3127-3132), was grown for 16 hours in LB medium either in the absence or presence of 2 μg/ml azithromycin and the activity of β-galactosidase (β-Gal) (Miller, J. H., “Experiments in Molecular Genetics”, p. 352-355. Cold Spring Harbor Laboratory, Cold Spring Harbor, N.Y.) was measured in both cultures in intervals of 4 hours. The results of 6 experiments (mean±SD) for each culture were plotted against sampling time (FIG. 1c).

Another data set relates to 3-oxo-C12-HSL. In words: Production of 3-oxo-C12-HSL autoinducer, specific bioassay of ethyl acetate extracts of supernatants. In kind it is cell-based, P. aeruginosa. To be noted: 2 μg/ml, LB medium, 12 hours, strain PAO1. Here is the method:
(§1) P. aeruginosa strain PAO1 was grown in LB medium for 12 hours either in the absence or presence of 2 μg/ml of azithromycin. The formed 3-oxo-C12—HSL and C4—HSL autoinducers were extracted from the supernatants of both cultures with ethyl acetate and their respective concentrations were measured using specific bioassays (Pearson, J. P., Pesci, E. C., Iglewski, B. H., J. Bacteriol. 1997, 179, 3127-3132; Seed, P. C, Passador, L., Iglewski, B. H., J. Bacteriol. 1995, 177, 654-659). The results are plotted in FIG. 3 a). In the presence of the macrolide the concentrations of 3-oxo-C12-HSL and C4-HSL were reduced by 94 and 72%, respectively.

The test system of data set [1] is P. aeruginosa strain PAO1. Description: Qualitative rhamnolipid plate assay on M9-based agar with azithromycin gradient. In kind it is cell-based. To be noted: gradient from 0 μg/ml to 20 μg/ml in agar. Here is the method: P. aeruginosa strain PAO1 was grown on M9-based agar plates (Siegmund, I., Wagner, F., Biotechnol. Tech. 1991, 5, 265-268) into which a gradient of azithromycin from 0 μg/ml to 20 μg/ml was incorporated. The qualitative Rhamnolipid® plate assay was used.

Data set [2] concerns lasR, rhlR, lasI and rhlI genes. Description: lacZ reporter fusions of lasR, rhlR, lasI, rhlI, beta-Gal activity. In kind it is cell-based, P. aeruginosa. To be noted: 2 μg/ml azithromycin, 10 h. Here is the method:
Cultures of P. aeruginosa strain PAO1, harbouring the fusion gene of lasR′ with lacZ reporter (pPCS10011; Pesci, E. C., Pearson, J. P., Seed, P. C., Iglewski, B. H., J. Bacteriol. 1997, 179, 3127-3132), or the fusion gene of rhlR′ with lacZ (pPCS1002; ibid.), or the fusion gene of lasI′ with lacZ (pPCS223; Van Delden, C., Pesci, E. C., Pearson, J. P., Iglewski, B. H., Infect. Immun. 1998, 66, 4499-4502), or the fusion gene of rhlI′ with lacZ (pLPRI; ibid.) were grown for 10 h in broth medium either in the absence or presence of 2 μg/ml azithromycin and the β-Gal activity was then determined. The results for lasR and rhlR are shown in FIG. 2a) and for lasI and rhlI in FIG. 2b) (plotted bars are the mean ±SD of 6 individual experiments each).

The next data set has as its system C4-HSL. In words: Production of C4-HSL autoinducer, specific bioassay of ethyl acetate extracts of supernatants. To be noted: 2 μg/ml, LB medium, 12 hours, strain PAO1. Format: cell-based, P. aeruginosa. Here is the method:
as §1

The conditions of data set [3]: in vivo; cited from earlier work.
Data set [4] concerns P. aeruginosa strain PAO1. In words: Cell growth of P. aeruginosa PAO1 in LB medium (turbidity at 660 nm) and SDS-PAGE of total protein extracts. In kind it is cell-based. Here is the method:
P. aeruginosa strain PAO1 was grown for a total of 10 hours on Luria-Bertani (LB) medium containing 2, 3, 4 and 5 μg/ml of azithromycin, respectively. The cell growth in the media was measured by optical absorbance measurements (turbidity) at 660 nm in intervals of 2 h.

The test system of data set [5] is P. aeruginosa strain PAO1. Description: Growth curves (optical density at 660 nm) in the elastase production experiment. Format: cell-based. Conditions: 2 μg/ml, broth medium, 16 hours. Here is the method:
P. aeruginosa strain PAO1 was grown over a total of 16 hours in broth medium either without azithromycin or with 2 μg/ml azithromycin. Samples of the supernatants of both cultures were taken in intervals of 4 hours and the activity of elastase in the samples was determined using elastin Congo red assays (Pearson, J. P., Pesci, E. C., Iglewski, B. H., J. Bacteriol. 1997, 179, 5756-5767). The measured elastase activity was plotted against the sampling times, giving FIG. 1b).

Setting [6] is: 2 μg of azithromycin/ml, LB medium, strain PAO1.

SMILES strings stand for the structures.

Consider three compounds from patent US20040197341A1, “Therapeutic process for p. aeruginosa infections using macrolide antibiotics” (priority 2004, published 2004).

Turning to `CC[C@H]1OC(=O)[C@H](C)[C@@H](O[C@H]2C[C@@](C)(OC)[C@@H](O)[C@H](C)O2)[C@H](C)[C@@H](O[C@@H]2O[C@H](C)C[C@H](N(C)C)[C@H]2O)[C@](C)(OC)C[C@@H](C)C(=O)[C@H](C)[C@@H](O)[C@]1(C)O` [clarithromycin], the “effect on the viability of the microorganism” value in the data set on P. aeruginosa strains was “no effect”.

Consider `CC[C@H]1OC(=O)[C@H](C)[C@@H](O[C@H]2C[C@@](C)(OC)[C@@H](O)[C@H](C)O2)[C@H](C)[C@@H](O[C@@H]2O[C@H](C)C[C@H](N(C)C)[C@H]2O)[C@](C)(O)C[C@@H](C)C(=O)[C@H](C)[C@@H](O)[C@]1(C)O` [erythromycin], for which, in the data set with C4-HSL autoinducer, the autoinducer production entry was “reduction”.

In the case of `CC[C@H]1OC(=O)[C@H](C)[C@@H](O[C@H]2C[C@@](C)(OC)[C@@H](O)[C@H](C)O2)[C@H](C)[C@@H](O[C@@H]2O[C@H](C)C[C@H](N(C)C)[C@H]2O)[C@](C)(O)C[C@@H](C)CN(C)[C@H](C)[C@@H](O)[C@]1(C)O` [azithromycin], in the data set with rhlAB operon, the “influence on the growth (optical density at 660 nm)” value is “no significant influence”. Besides, in the data set with 3-oxo-C12-HSL, the “reduction of 3-oxo-C12-HSL concentration” value is listed as 94%. Further, in data set [1], the “growth on rhamnolipid plates” value is on record as “without a parallel drop in growth” and the production of rhamnolipids entry is “progressively decreased”. In addition, the “restoration of lasI expression by co-addition of exogenous autoinducers” value in data set [2] (10 μM exogenous autoinducers) is on record as “could not restore”. The “effect on lasR and rhlR expression on co-adding exogenous 3-oxo-C12-HSL and C4-HSL” value in data set [2] (autoinducers 10 μM each) was “almost completely compensated”. For the same compound, the “reduction of C4-HSL concentration” value in the data set on C4-HSL is reported as 72%. The “distribution between body tissues and serum/plasma” value in data set [3] is “tends to accumulate in body tissues”. Besides, in data set [4] (setting [6]), the “effect on exponential growth” value was “slightly affected” and the “effect on the stationary growth phase” value is recorded as “no effect”. Also, in data set [4] (in vitro concentration 2 μg/ml), the “inhibition of PAO1” value is “does not inhibit PAO1”. Moreover, the “influence on the growth (optical density at 660 nm)” value in data set [5] is given as “no significant influence”.
